# In patent publication US12364709B2, “Bioavailable poly amines” (AMINEX THERAPEUTICS, INC., priority 2016, dated 2025):
# Several values for one entry are separate records, joined by “and”; a condition that tells them apart may be missing. Equal values may be shown once.
# Assays:
# [1] = 5 day repeat oral dosing PK of AMXT 1501 dicaprate; format: in vivo, beagle dogs
# Experimental: The pharmacokinetic (PK) profiles after dosing on Days 1 and 5 were evaluated using standard noncompartmental methods. The following experimental design was used. Beagle dogs, 1 or 2 males and 1 or 2 females for a total of 3 dogs per group, were randomly assigned to the four treatment groups as outlined in Table 19. AMXT 1501 dicaprate salt was administered in tablet form once daily for five days. […] Plasma samples were analyzed for AMXT 1501 concentration via a liquid chromatography/mass spectrometry (LC/MS-MS) procedure and the resulting concentration versus time data were used to estimate individual animal PK parameters using noncompartmental analysis (NCA).
# [2] = Pharmacokinetic analysis of AMXT 1501 salt forms, single oral tablet dose; format: in vivo, beagle dogs; conditions: for Cmax / Tmax / half-life / AUC(0-t): beagle, dog, plasma, po
# Source text: Following dose administration all the animals had serial blood collections. Table 18 provides pharmacokinetic data obtained using the various salt forms of AMXT 1501 following single PO dosing to dogs. In Table 18, Group 1 received the free base form of AMXT 1501, Group 2 received the dicholate salt of AMXT 1501, Group 3 received the phosphate salt form of AMXT 1501, and Group 4 received the dicaprate salt form of AMXT 1501. […] In Table 18, SD refers to standard deviation and CV % refers to coefficient of variability.
# [3] = 8 mg/kg PO once daily, Day 5, individual animals
# [4] = 8 mg/kg PO, Day 1, individual animals
# [5] = 16 mg/kg PO once daily, Day 5, individual animals
# [6] = 16 mg/kg PO, Day 1, individual animals
# [7] = 32 mg/kg PO once daily, Day 5, individual animals
# [8] = 32 mg/kg PO, Day 1, individual animals
# [9] = single PO dose 16.0 mg/kg (2 x 80 mg tablets), plasma AMXT 1501, 16 mg/kg
# [10] = single PO dose 16.0 mg/kg, plasma AMXT 1501, 16 mg/kg
# [11] = single PO dose 16.0 mg/kg, t=24 hours, plasma AMXT 1501, 16 mg/kg
smiles,measurement,setting,value
CCCCCCCCCCCCCCCC(=O)NCCCC[C@@H](N)C(=O)NCCCNCCCCNCCCN [AMXT 1501 dicaprate],AUC(0-t),[1]; [3],5620 ng·h/mL and 3100 ng·h/mL
same,Cmax,[1]; [3],360 ng/mL and 254 ng/mL
same,t1/2,[1]; [3],7.82 h
same,AUC(0-t),[1]; [4],2050 ng·h/mL
same,Cmax,[1]; [4],168 ng/mL
same,AUC(0-t),[1]; [5],11000 ng·h/mL
same,Cmax,[1]; [5],454 ng/mL and 714 ng/mL
same,Tmax,[1]; [5],12.0 h
same,AUC(0-t),[1]; [6],3190 ng·h/mL and 3300 ng·h/mL
same,Cmax,[1]; [6],249 ng/mL
same,t1/2,[1]; [6],36.2 h and 10.3 h
same,AUC(0-t),[1]; [7],11000 ng·h/mL and 11100 ng·h/mL
same,Cmax,[1]; [7],662 ng/mL and 708 ng/mL
same,AUC(0-t),[1]; [8],5830 ng·h/mL and 4900 ng·h/mL
same,Cmax,[1]; [8],446 ng/mL and 333 ng/mL
same,t1/2,[1]; [8],27.1 h and 10.0 h
same,half-life,"[1]; both sexes, beagle, dog, plasma, oral, Day 1, animals where it could be estimated, read-out: mean Day 1 t1/2 values, range across groups",7.99 to 23.2 h
same,half-life at 5 days,"[1]; both sexes, beagle, dog, plasma, oral, Day 5, animals where it could be estimated, read-out: mean Day 5 t1/2 values, range across groups",8.69 to 20.8 h
same,AUC(0-t),"[1]; both sexes, beagle, dog, plasma, po, 8 mg/kg, 8 mg/kg PO once daily, Day 5, group mean, read-out: AUC0-t Mean",4750 ng·h/mL
same,Cmax,"[1]; both sexes, beagle, dog, plasma, po, 8 mg/kg, 8 mg/kg PO once daily, Day 5, group mean, read-out: Cmax Mean",340 ng/mL
same,Tmax,"[1]; both sexes, beagle, dog, plasma, po, 8 mg/kg, 8 mg/kg PO once daily, Day 5, group mean, read-out: Tmax Mean",5.33 h
same,half-life,"[1]; both sexes, beagle, dog, plasma, po, 8 mg/kg, 8 mg/kg PO once daily, Day 5, group mean, read-out: t1/2 Mean (converted)",8.69 h
same,AUC(0-t),"[1]; both sexes, beagle, dog, plasma, po, 8 mg/kg, 8 mg/kg PO once daily, Day 5, individual animals, read-out: AUC0-t",5530 ng·h/mL
same,Cmax,"[1]; both sexes, beagle, dog, plasma, po, 8 mg/kg, 8 mg/kg PO once daily, Day 5, individual animals, read-out: Cmax",405 ng/mL
same,Tmax,"[1]; both sexes, beagle, dog, plasma, po, 8 mg/kg, 8 mg/kg PO once daily, Day 5, individual animals, read-out: Tmax",8 h
same,half-life,"[1]; both sexes, beagle, dog, plasma, po, 8 mg/kg, 8 mg/kg PO once daily, Day 5, individual animals, read-out: t1/2 (converted)",9.55 h
same,AUC(0-t),"[1]; both sexes, beagle, dog, plasma, po, 8 mg/kg, 8 mg/kg PO, Day 1, group mean, read-out: AUC0-t Mean",2030 ng·h/mL
same,Cmax,"[1]; both sexes, beagle, dog, plasma, po, 8 mg/kg, 8 mg/kg PO, Day 1, group mean, read-out: Cmax Mean",154 ng/mL
same,Tmax,"[1]; both sexes, beagle, dog, plasma, po, 8 mg/kg, 8 mg/kg PO, Day 1, group mean, read-out: Tmax Mean",6 h
same,half-life,"[1]; both sexes, beagle, dog, plasma, po, 8 mg/kg, 8 mg/kg PO, Day 1, group mean, read-out: t1/2 Mean (converted)",9.3 h
same,AUC(0-t),"[1]; both sexes, beagle, dog, plasma, po, 8 mg/kg, 8 mg/kg PO, Day 1, individual animals, read-out: AUC0-t",2010 ng·h/mL
same,Cmax,"[1]; both sexes, beagle, dog, plasma, po, 8 mg/kg, 8 mg/kg PO, Day 1, individual animals, read-out: Cmax",139 ng/mL
same,Tmax,"[1]; both sexes, beagle, dog, plasma, po, 8 mg/kg, 8 mg/kg PO, Day 1, individual animals, read-out: Tmax",8 h
same,half-life,"[1]; both sexes, beagle, dog, plasma, po, 8 mg/kg, 8 mg/kg PO, Day 1, individual animals, read-out: t1/2 (converted)",9.3 h
same,AUC(0-t),"[1]; both sexes, beagle, dog, plasma, po, 16 mg/kg, 16 mg/kg PO once daily, Day 5, group mean, read-out: AUC0-t Mean",8890 ng·h/mL
same,Cmax,"[1]; both sexes, beagle, dog, plasma, po, 16 mg/kg, 16 mg/kg PO once daily, Day 5, group mean, read-out: Cmax Mean",564 ng/mL
same,Tmax,"[1]; both sexes, beagle, dog, plasma, po, 16 mg/kg, 16 mg/kg PO once daily, Day 5, group mean, read-out: Tmax Mean",8 h
same,half-life,"[1]; both sexes, beagle, dog, plasma, po, 16 mg/kg, 16 mg/kg PO once daily, Day 5, group mean, read-out: t1/2 Mean (converted)",11.7 h
same,AUC(0-t),"[1]; both sexes, beagle, dog, plasma, po, 16 mg/kg, 16 mg/kg PO once daily, Day 5, individual animals, read-out: AUC0-t",9410 ng·h/mL
same,Cmax,"[1]; both sexes, beagle, dog, plasma, po, 16 mg/kg, 16 mg/kg PO once daily, Day 5, individual animals, read-out: Cmax",523 ng/mL
same,half-life,"[1]; both sexes, beagle, dog, plasma, po, 16 mg/kg, 16 mg/kg PO once daily, Day 5, individual animals, read-out: t1/2 (converted)",11.7 h
same,AUC(0-t),"[1]; both sexes, beagle, dog, plasma, po, 16 mg/kg, 16 mg/kg PO, Day 1, group mean, read-out: AUC0-t Mean",3450 ng·h/mL
same,Cmax,"[1]; both sexes, beagle, dog, plasma, po, 16 mg/kg, 16 mg/kg PO, Day 1, group mean, read-out: Cmax Mean",238 ng/mL
same,Tmax,"[1]; both sexes, beagle, dog, plasma, po, 16 mg/kg, 16 mg/kg PO, Day 1, group mean, read-out: Tmax Mean",5.33 h
same,half-life,"[1]; both sexes, beagle, dog, plasma, po, 16 mg/kg, 16 mg/kg PO, Day 1, group mean, read-out: t1/2 Mean (converted)",23.2 h
same,AUC(0-t),"[1]; both sexes, beagle, dog, plasma, po, 16 mg/kg, 16 mg/kg PO, Day 1, individual animals, read-out: AUC0-t",3870 ng·h/mL
same,Cmax,"[1]; both sexes, beagle, dog, plasma, po, 16 mg/kg, 16 mg/kg PO, Day 1, individual animals, read-out: Cmax",202 ng/mL
same,Tmax,"[1]; both sexes, beagle, dog, plasma, po, 16 mg/kg, 16 mg/kg PO, Day 1, individual animals, read-out: Tmax",8 h
same,AUC(0-t),"[1]; both sexes, beagle, dog, plasma, po, 32 mg/kg, 32 mg/kg PO once daily, Day 5, group mean, read-out: AUC0-t Mean",13000 ng·h/mL
same,Cmax,"[1]; both sexes, beagle, dog, plasma, po, 32 mg/kg, 32 mg/kg PO once daily, Day 5, group mean, read-out: Cmax Mean",837 ng/mL
same,Tmax,"[1]; both sexes, beagle, dog, plasma, po, 32 mg/kg, 32 mg/kg PO once daily, Day 5, group mean, read-out: Tmax Mean",6.67 h
same,half-life,"[1]; both sexes, beagle, dog, plasma, po, 32 mg/kg, 32 mg/kg PO once daily, Day 5, group mean, read-out: t1/2 Mean (converted)",10.7 h
same,AUC(0-t),"[1]; both sexes, beagle, dog, plasma, po, 32 mg/kg, 32 mg/kg PO once daily, Day 5, individual animals, read-out: AUC0-t",16800 ng·h/mL
same,Cmax,"[1]; both sexes, beagle, dog, plasma, po, 32 mg/kg, 32 mg/kg PO once daily, Day 5, individual animals, read-out: Cmax",1140 ng/mL
same,Tmax,"[1]; both sexes, beagle, dog, plasma, po, 32 mg/kg, 32 mg/kg PO once daily, Day 5, individual animals, read-out: Tmax",4 h
same,half-life,"[1]; both sexes, beagle, dog, plasma, po, 32 mg/kg, 32 mg/kg PO once daily, Day 5, individual animals, read-out: t1/2 (converted)",10.7 h
same,AUC(0-t),"[1]; both sexes, beagle, dog, plasma, po, 32 mg/kg, 32 mg/kg PO, Day 1, group mean, read-out: AUC0-t Mean",5660 ng·h/mL
same,Cmax,"[1]; both sexes, beagle, dog, plasma, po, 32 mg/kg, 32 mg/kg PO, Day 1, group mean, read-out: Cmax Mean",447 ng/mL
same,Tmax,"[1]; both sexes, beagle, dog, plasma, po, 32 mg/kg, 32 mg/kg PO, Day 1, group mean, read-out: Tmax Mean",5.33 h
same,half-life,"[1]; both sexes, beagle, dog, plasma, po, 32 mg/kg, 32 mg/kg PO, Day 1, group mean, read-out: t1/2 Mean (converted)",18.6 h
same,AUC(0-t),"[1]; both sexes, beagle, dog, plasma, po, 32 mg/kg, 32 mg/kg PO, Day 1, individual animals, read-out: AUC0-t",6250 ng·h/mL
same,Cmax,"[1]; both sexes, beagle, dog, plasma, po, 32 mg/kg, 32 mg/kg PO, Day 1, individual animals, read-out: Cmax",563 ng/mL
same,Tmax,"[1]; both sexes, beagle, dog, plasma, po, 32 mg/kg, 32 mg/kg PO, Day 1, individual animals, read-out: Tmax",8 h
same,Tmax,"[1]; both sexes, beagle, dog, plasma, po, 32 mg/kg, single or repeat once daily PO 8, 16, or 32 mg/kg, postdose, read-out: Tmax observed",4 to 12 h
same,Cmax,"[2]; 16 mg/kg, single PO dose 16.0 mg/kg (2 x 80 mg tablets), plasma AMXT 1501, read-out: Cmax Mean",276 ng/mL
same,Cmax,"[2]; 16 mg/kg, single PO dose 16.0 mg/kg (2 x 80 mg tablets), plasma AMXT 1501, read-out: Cmax Median",278 ng/mL
same,Tmax,"[2]; 16 mg/kg, single PO dose 16.0 mg/kg (2 x 80 mg tablets), plasma AMXT 1501, read-out: Tmax Mean",6 h
same,Tmax,"[2]; 16 mg/kg, single PO dose 16.0 mg/kg (2 x 80 mg tablets), plasma AMXT 1501, read-out: Tmax Median",6 h
same,half-life,"[2]; 16 mg/kg, single PO dose 16.0 mg/kg, plasma AMXT 1501, read-out: t1/2 Mean (converted)",14 h
same,half-life,"[2]; 16 mg/kg, single PO dose 16.0 mg/kg, plasma AMXT 1501, read-out: t1/2 Median (converted)",13.4 h
same,AUC(0-t),"[2]; 16 mg/kg, single PO dose 16.0 mg/kg, t=24 hours, plasma AMXT 1501, read-out: AUC0-t Mean",6580 ng·h/mL
same,AUC(0-t),"[2]; 16 mg/kg, single PO dose 16.0 mg/kg, t=24 hours, plasma AMXT 1501, read-out: AUC0-t Median",6370 ng·h/mL
same,Cmax Max.,[2]; [9],349 ng/mL
same,Cmax Min.,[2]; [9],201 ng/mL
same,t1/2 Max.,[2]; [10],16.2 h
same,t1/2 Min.,[2]; [10],12.4 h
same,AUC0-t Max.,[2]; [11],8640 ng·h/mL
same,AUC0-t Min.,[2]; [11],4710 ng·h/mL
same,inter-animal consistency of plasma AMXT 1501 levels,"[2]; single oral delivery, FIGS. 5A-5D",much more consistent inter-animal blood levels
